Test results as given in patent US10668033B2, “Modulators of the prostacyclin (PGI2) receptor useful for the treatment of disorders related thereto” (Arena Pharmaceuticals, Inc., priority 2008, dated 2020).
One block for each compound: values may come before it.

Legend:
[1] = test system: human PRP; experiment: Human platelet aggregation inhibition test; format: cell-based; settings: ADP (1×10^−5 M) induced aggregation
Protocol: Blood collected from healthy human volunteers in aqueous trisodium citrate solution was centrifuged at 150 g for 15 min and the upper layer was recovered to obtain platelet-rich plasma (PRP). The residual blood was centrifuged at 3000 g for 10 min and the supernatant was collected as platelet-poor plasma (PPP). Platelet concentration in the PRP was determined using the Z series Beckman Coulter particle counter (Beckman, Fullerton, Calif.) and adjusted to 250,000 platelets/μL using PPP. 480 μL of PRP was pre-incubated at 37° C. and stirred at 1200 rpm with 10 μL aqueous test compound solution for 1 min prior to induction of aggregation by the addition of 10 μL of aqueous adenosine diphosphate (ADP) solution to adjust the final ADP concentration in the PRP to 1×10^−5 M. The maximal amplitude of aggregation response within 3 min was determined and measured in triplicate using the Chronolog model 490 aggregometer (Chrono-log Corp., Havertown, Pa.). Percent inhibition of aggregation was calculated from the maximum decrease in optical density of the control (addition of water in place of the test compound solution) sample and of the samples containing test compound. The test compound was added to adjust the final concentration to the range 10^−9 to 10^−4 M, and IC50 values were determined by inhibition percentage of aggregation at each concentration.

[2] = molecular target: human prostacyclin (PGI2) receptor (Homo sapiens (Human), UniProt P43119); experiment: HTRF assay for direct cAMP measurement; format: cell-based; settings: recombinant CHO-K1 cells stably transfected with human prostacyclin receptor; cAMP increase
From the text: Compounds were screened for agonists of the human prostacyclin (PGI2) receptor using the HTRF® assay for direct cAMP measurement (Gabriel et al., ASSAY and Drug Development Technologies, 1:291-303, 2003) and recombinant CHO-K1 cells stably transfected with human prostacyclin receptor. CHO-K1 cells were obtained from ATCC® (Manassas, Va.; Catalog # CCL-61). An agonist of the prostacyclin receptor was detected in HTRF® assay for direct cAMP measurement as a compound which increased cAMP concentration. HTRF® assay also was used to determine EC50 values for prostacyclin receptor agonists.
The HTRF® assay kit was purchased from Cisbio-US, Inc. (Bedford, Mass.; Catalog #62AM4PEC). The HTRF® assay supported by the kit is a competitive immunoassay between endogenous cAMP produced by the CHO-K1 cells and tracer cAMP labeled with the dye d2. The tracer binding is visualized by a monoclonal anti-cAMP antibody labeled with Cryptate. The specific signal (i.e., fluorescence resonance energy transfer, FRET) is inversely proportional to the concentration of unlabeled cAMP in the standard or sample.
The fluorescence ratio (665 nm/620 nm) of the standards (0.17 to 712 nM cAMP) included in the assay was calculated and used to generate a cAMP standard curve according to the kit manufacturer's instructions. The fluorescence ratio of the samples (test compound or compound buffer) was calculated and used to deduce respective cAMP concentrations by reference to the cAMP standard curve.
The HTRF® assay was carried out using a two-step protocol essentially according to the kit manufacturer's instructions, in 20 μL total volume per well in 384-well plate format (ProxiPlates; PerkinElmer, Fremont, Calif.; catalog #6008280). To each of the experimental wells was transferred 3000 recombinant CHO-K1 cells in 5 μL assay buffer (phosphate buffered saline containing calcium chloride and magnesium chloride (Invitrogen, Carlsbad, Calif.; catalog #14040) supplemented with IBMX (100 μM) and rolipram (10 μM) (phosphodiesterase inhibitors; Sigma-Aldrich, St. Louis, Mo.; catalog #15879 and catalog # R6520, respectively) and 0.1% bovine serum albumin (BSA) fraction V (Sigma-Aldrich; catalog # A3059)), followed by test compound in 5 μL assay buffer or 5 μL assay buffer. The plate was then incubated at room temperature for 1 h. To each well was then added 5 μL cAMP-d2 conjugate in lysis buffer and 5 μL Cryptate conjugate in lysis buffer according to the kit manufacturer's instructions. The plate was then further incubated at room temperature for 1 h, after which the assay plate was read.
The HTRF® readout was accomplished using a PHERAstar (BMG LABTECH Inc., Durham, N.C.) or EnVision™ (PerkinElmer, Fremont Calif.) microplate reader.

[3] = test system: MCT-induced pulmonary arterial hypertension; experiment: Rat monocrotaline (MCT) model of pulmonary arterial hypertension; format: in vivo; settings: 30 mg/kg oral gavage twice a day for 21 days; 60 mg/kg MCT s.c.; male Wistar rats
Protocol: Male Wistar rats (100-150 g at start of study) (Charles River Laboratories, Wilmington, Mass.) were housed two per cage and maintained in a humidity—(40-60%) and temperature—(68-72° F.) controlled facility on a 12 hr:12 hr light/dark cycle (lights on at 6:30 am) with free access to food (Harlan Teklad, Orange Calif., Rodent Diet 8604) and water. Rats were allowed one week of habituation to the animal facility before testing.
The rat monocrotaline (MCT) model is a standard and well-accepted model of pulmonary arterial hypertension. MCT induces acute pulmonary endothelial damage associated with pulmonary vascular inflammation. […]
Rats were randomly given a single subcutaneous injection of either 60 mg/kg MCT (Sigma, St. Louis, Mo.) or 0.9% saline (sham) and assigned to receive oral administration of 20% hydroxypropyl beta-cyclodextrin (vehicle) or test compound (30 mg/kg; FIGS. 7 and 8). […] Heart chamber weights were measured on Day 22. […] The ratio of right ventricular (RV) weight to left ventricle plus septum (LV+S) weight (this ratio is indicated as “RV/(LV+S)” in FIGS. 7 and 8) was calculated as an index of the hypertrophic response to the induced pulmonary arterial hypertension and, as such, as an index of a test compound's therapeutic efficacy for pulmonary arterial hypertension.

[4] = test system: human hepatocytes; experiment: Hepatocyte metabolism of Compound 22 sodium salt, human; format: in vitro ADME; settings: 100 μM, up to 240 min
Protocol: (§1) All cryopreserved hepatocytes were thawed and diluted to a desired cell density (1×10^6 cells/mL) according to the supplier's (Xenotech) guidelines using hepatocytes isolation kit. Cell viability was determined by trypan blue exclusion using a hemacytometer. A typical incubation mixture contained human, cynomolgus monkey, beagle dog or Sprague-Dawley rat hepatocytes (200,000 cells/199 μL) in designated wells of a 48-well plate containing incubation medium (Phenol red-free Waymouth's medium). […] One incubation plate was prepared for each time point (i.e., 0, 60, 120, and 240 min) with samples being prepared in duplicate. Incubations were conducted at 37° C., 5% CO2 and 100% relative humidity in an incubator. At each time point, one incubation plate was removed form the incubator, and reaction was terminated by adding 400 μL of acetonitrile containing an internal standard. For the 0 min time point, the reactions were kept on ice before adding Compound 22 sodium salt. After 5 min on ice, the reaction mixture was terminated by adding 400 μL of acetonitrile containing an internal standard. Supernatants were transferred to labeled strip tubes with caps, which were vortexed for 3 min, and then sonicated for an additional 3 min. The samples were centrifuged for 10 min at 4000 rpm and the supernatants were used for metabolite identification. […]

[5] = In vivo metabolism of Compound 22 sodium salt in bile-duct cannulated rats; set-up: species or system Sprague-Dawley rat
Protocol: Three bile-duct cannulated male Sprague-Dawley rats were dosed intravenously (IV) at 2.00 mg/kg. In addition to plasma samples, bile and urine were collected from 0 to 48 hours post-dose.

[6] = Pharmacokinetics in rats after oral administration of Compound 99; format: in vivo, Sprague-Dawley rat
Protocol: Blood samples were obtained from 0.100 to 21.0 h post-dose for plasma drug concentration measurements. […] Pharmacokinetic parameters were estimated using non-compartmental pharmacokinetic analysis.

[7] = test system: cynomolgus monkey hepatocytes; experiment: Hepatocyte metabolism of Compound 22 sodium salt, monkey; format: in vitro ADME; settings: 100 μM, up to 240 min
Protocol: as §1

[8] = test system: Sprague-Dawley rat hepatocytes; experiment: Hepatocyte metabolism of Compound 22 sodium salt, rat; format: in vitro ADME; settings: 100 μM, up to 240 min
Protocol: as §1

[9] = test system: beagle dog hepatocytes; experiment: Hepatocyte metabolism of Compound 22 sodium salt, dog; format: in vitro ADME; settings: 100 μM, up to 240 min
Protocol: as §1

[10] = Sprague-Dawley, rat, plasma analyte after 1.25 mg/kg oral dose of Compound 99, male rats

Sequence of human prostacyclin (PGI2) receptor (P43119 whole entry): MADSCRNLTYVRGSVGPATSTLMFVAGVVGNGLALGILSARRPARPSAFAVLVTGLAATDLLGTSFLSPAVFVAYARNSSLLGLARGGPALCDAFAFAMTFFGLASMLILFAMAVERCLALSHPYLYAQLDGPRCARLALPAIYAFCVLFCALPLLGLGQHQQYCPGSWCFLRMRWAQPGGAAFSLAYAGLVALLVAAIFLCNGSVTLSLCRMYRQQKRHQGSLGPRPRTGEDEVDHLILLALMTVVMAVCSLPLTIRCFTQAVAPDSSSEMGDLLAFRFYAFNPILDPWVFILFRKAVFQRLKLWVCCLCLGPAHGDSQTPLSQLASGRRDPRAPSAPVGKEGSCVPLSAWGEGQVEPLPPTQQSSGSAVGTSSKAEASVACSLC

EC50 [2]: 56.9 nM
SMILES: O=C(O)COC[C@H]1CC[C@@H](COC(=O)N(c2ccccc2)c2ccc(F)cc2)CC1 [Compound 35, 2-(((1s,4s)-4-(((4-fluorophenyl)(phenyl)carbamoyloxy)methyl)cyclohexyl)methoxy)acetic acid]

EC50 [2]: 5.14 nM
SMILES: COc1ccc(N(C(=O)OC[C@H]2CC[C@H](COCC(=O)O)CC2)c2cccc(F)c2)cc1 [Compound 55, 2-(((1r,4r)-4-(((3-fluorophenyl)(4-methoxyphenyl)carbamoyloxy)methyl)cyclohexyl)methoxy)acetic acid]

EC50 [2]: 19.1 nM
SMILES: Cc1ccc(N(C(=O)OC[C@H]2CC[C@H](COCC(=O)O)CC2)c2cccc(F)c2)s1 [Compound 71, 2-(((1r,4r)-4-(((3-fluorophenyl)(5-methylthiophen-2-yl)carbamoyloxy)methyl)cyclohexyl)methoxy)acetic acid]

metabolite of Compound 22 sodium salt in human hepatocytes [4]: detected
metabolite in bile ([5]; 2.00 mg/kg IV of Compound 22 sodium salt, bile 0 to 48 hours): observed in bile
metabolite in urine ([5]; 2.00 mg/kg IV of Compound 22 sodium salt, urine 0 to 48 hours): not observed in urine
metabolite of Compound 22 sodium salt in rats ([5]; 2.00 mg/kg IV, male rats): major metabolite
conversion to parent ([6]; 1.25 mg/kg oral dose in rats): converted to Compound 22
exposure ([6]; 1.25 mg/kg oral dose in rats): minimal exposure
AUC(0-t) [6, 10]: 11.9 ng·h/mL
Cmax at 3.33 h [6, 10]: 1.93 ng/mL
half-life ([6]; Sprague-Dawley, rat, plasma analyte after 1.25 mg/kg oral dose of Compound 99, male rats, read-out: terminal phase half-life (T1/2) (converted)): 3.24 h
Tmax ([6]; male, Sprague-Dawley, rat, plasma, 10 mg/kg, after oral dose of the taurine conjugate of Compound 22): 3 h
time of Cmax ([6]; plasma analyte after 1.25 mg/kg oral dose of Compound 99, male rats): 3.33 h
metabolite of Compound 22 sodium salt in monkey hepatocytes [7]: detected
metabolite of Compound 22 sodium salt in rat hepatocytes [8]: detected
metabolite of Compound 22 sodium salt in dog hepatocytes [9]: detected
SMILES: O=C(COC[C@H]1CC[C@H](COC(=O)N(c2ccccc2)c2ccc(Cl)cc2)CC1)NCCS(=O)(=O)O [Compound 99, 2-(2-(((1r,4r)-4-(((4-chlorophenyl)(phenyl)carbamoyloxy)methyl)cyclohexyl)methoxy)acetamido) ethanesulfonic acid]

metabolite of Compound 22 sodium salt in human hepatocytes [4]: detected
metabolite of Compound 22 sodium salt in monkey hepatocytes [7]: detected
metabolite of Compound 22 sodium salt in rat hepatocytes [8]: only detected in human and monkey
metabolite of Compound 22 sodium salt in dog hepatocytes [9]: only detected in human and monkey
SMILES: O=C(O)CNC(=O)COC[C@H]1CC[C@H](COC(=O)N(c2ccccc2)c2ccc(Cl)cc2)CC1 [Compound 100, 2-(2-(((1r,4r)-4-(((4-chlorophenyl)(phenyl)carbamoyloxy)methyl)cyclohexyl)methoxy)acetamido) acetic acid]

Continued, compound first:

SMILES: O=C(O)COC[C@H]1CC[C@H](CNC(=O)N(c2ccccc2)c2ccccc2)CC1 [Compound 2, 2-(((1r,4r)-4-((3,3-diphenylureido)methyl)cyclohexyl)methoxy)acetic acid]
IC50 [1]: 73 nM

SMILES: O=C(O)COC[C@H]1CC[C@H](CNC(=O)N(c2ccccc2)c2cccc(Cl)c2)CC1 [Compound 6, 2-(((1r,4r)-4-((3-(3-chlorophenyl)-3-phenylureido)methyl)cyclohexyl)methoxy)acetic acid]
EC50 [2]: 61.1 nM

SMILES: O=C(O)COC[C@H]1CC[C@H](COC(=O)N(c2ccccc2)c2cccc(F)c2)CC1 [Compound 23, 2-(((1r,4r)-4-(((3-fluorophenyl)(phenyl)carbamoyloxy)methyl)cyclohexyl)methoxy)acetic acid]
hypertrophic response, RV/(LV+S) [3]: inhibited the hypertrophic response

SMILES: O=C(O)COC[C@H]1CC[C@@H](COC(=O)N(c2ccccc2)c2cccc(Cl)c2)CC1 [Compound 30, 2-(((1s,4s)-4-(((3-chlorophenyl)(phenyl)carbamoyloxy)methyl)cyclohexyl)methoxy)acetic acid]
IC50 [1]: 210 nM

SMILES: Cc1ccc(N(C(=O)OC[C@H]2CC[C@H](COCC(=O)O)CC2)c2ccccc2)s1 [Compound 50, 2-(((1r,4r)-4-(((5-methylthiophen-2-yl)(phenyl)carbamoyloxy)methyl)cyclohexyl)methoxy)acetic acid]
IC50 [1]: 12.6 nM

SMILES: CCOc1ccc(N(C(=O)OC[C@H]2CC[C@H](COCC(=O)O)CC2)c2ccccc2)cc1 [Compound 88, 2-(((1r,4r)-4-(((4-ethoxyphenyl)(phenyl)carbamoyloxy)methyl)cyclohexyl)methoxy)acetic acid]
IC50 [1]: 70 nM
